“And” between values parts separate entries of the source, which are not always exact repeats. Identical values can stand only once.
How the values were obtained:
[1] = tested on: cervical carcinoma (HeLa); test: SRB cytotoxicity assay, HeLa; assay type: cell-based; settings: Homo sapiens, HeLa cells
caspase 3/7 = test: Caspase-Glo 3/7 assay in MCF-7; assay type: cell-based, human; settings: ½ IC50, IC50, 2×IC50, dose dependent
Experimental: (§1) The apoptotic effect of compound 7f on breast cancer cell line MCF-7 were evaluated by quantification of Bax, caspase 3/7, and Bcl-2 using Bax ELISA Kit ab199080 (ABCAM, Cambridge, UK), Caspase-Glo 3/7 assay kits (Promega, Fitchburg, MA, USA), and Bcl-2 ELISA Kit ab119506 (ABCAM, Cambridge, UK), according the instructions of manufacturers[11]^,[14]. The cells were treated with compounds 7f (½ IC50, IC50, or 2 ×IC50), and the activities were shown as a percentage change from the untreated control. The experiments were performed in triplicate applying two-way ANOVA test followed by Bonferroni posttest to evaluate the significance (p < 0.05).

Bax [2] = test: Western blot of Bax expression in MCF-7; assay type: cell-based, human
Experimental: (§2) The effect of compound 7f on the expression of DHFR, Casp3, Bax, and Bcl-2 proteins in MCF-7 cancer cells was evaluated by western blotting as previously performed. The cancer cells treated or untreated were collected were harvested and blotted on SDS-polyacrylamide gel and separated by Cleaver electrophoresis unit (Cleaver, UK), transferred onto polyvinylidene fluoride (PVDF) membranes (Millipore, USA) for 30 min using a Semi-dry Electroblotter (Biorad, USA) at 2.5 A and 25 V for 30 min. […] After washing, the chemiluminescent Western ECL substrate (Perkin Elmer, Waltham, MA, USA) was applied to the blot and then incubated for 1 min with a mixture of equal volumes from ECL solution A and ECL solution B. The chemiluminescent signals were captured using a CCD camera-based imager (Chemi Doc imager, Biorad, USA), and the bands intensities were then measured by Image J software program. […] For colorimetric assays two-way ANOVA test followed by Bonferroni posttest were used, while for quantification expression on western blot, student-t-test was used (significance p < 0.05). […]
(§3) Sodium dodecyl sulfate polyacrylamide gel electrophoresis (SDS-PAGE) is used to separate proteins based on their size. […] The secondary antibody is typically linked to an enzyme that produces luminescence upon the reaction with its substrate. […]

[3] = tested on: human hepatocellular carcinoma (HepG-2); test: SRB cytotoxicity assay, HepG-2; assay type: cell-based; settings: HepG2, HepG-2 cells
Experimental: (§4) The SRB colorimetric assay was employed to assess the synthesized compounds’ cytotoxic effects on several cancer cell lines (Table 1)[11–14]. […] Furthermore, the effect of tested compounds was evaluated on the normal immortalized HPDE cell line.
(§5) Sulforhodamine B (SRB) assay was employed to assay in-vitro antitumor activities of all the synthesised compounds as describer previously. […] The cell lines were obtained from the American Type Culture Collection (Rockville, USA).

[4] = tested on: pancreatic human cancer cell lines (BxPC-3); test: SRB cytotoxicity assay, BxPC-3; assay type: cell-based; settings: BxPC-3 cells
Experimental: as §4, §5

Bax [5] = test: Bax ELISA in MCF-7; assay type: cell-based, human; settings: ½ IC50, IC50, 2×IC50, dose dependent
Experimental: as §1

DHFR = test: Western blot of DHFR expression in MCF-7; assay type: cell-based, human
Experimental: as §2, §3

human DHFR enzyme = molecular target: T1, human DHFR enzyme (Homo sapiens, UniProt P00374); test: Elisa assay of human DHFR enzyme; assay type: biochemical
T1 construct: purchased MyBioSource MBS9312476
T1 sequence (P00374 1-187): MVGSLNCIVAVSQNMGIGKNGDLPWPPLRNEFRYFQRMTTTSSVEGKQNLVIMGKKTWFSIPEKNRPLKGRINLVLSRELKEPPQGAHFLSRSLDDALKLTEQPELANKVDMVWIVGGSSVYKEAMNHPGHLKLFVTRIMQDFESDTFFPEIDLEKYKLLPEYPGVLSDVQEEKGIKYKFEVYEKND
Experimental: Enzyme-linked immunosorbent assay (ELISA) assay technique was used to evaluate the anti-DHFR effects of all the synthesised compounds on as described previously. The DHFR ELISA kit (MyBioSource, MBS9312476 San Diego, CA, USA) was used according to the manufacturer instructions. […] The test was repeated in triplicate, and the significance was assessed by one-way ANOVA test followed by Tukey’s posttest, where p < 0.05 was considered significance.

[6] = tested on: mammary gland breast cancer (MCF-7); test: SRB cytotoxicity assay, MCF-7; assay type: cell-based; settings: Homo sapiens, MCF7, MCF-7 cells
Experimental: as §4, §5

## N=C(N)NCCCC(NC(=O)c1ccc(Nc2ncnc3c2cnn3-c2ccccc2)cc1)C(=O)O (stereo not drawn) [Compound 7f, 5-Guanidino-2-{4-[(1-phenyl-1H-pyrazolo[3,4-d]pyrimidin-4-yl)amino]benzamido}pentanoic acid]
[1]
  IC50: 6.99 ± 1.11 µM
Caspase 3/7
  release of caspase 3/7: significantly surge the release
Bax [2]; MCF7 cells, Cont.MCF7 0.152
  western blotting OD Bax: 0.346 OD
Bax [2]; MCF-7
  expression of Bax (western blot): significantly increased the expression
[3]
  IC50: 5.12 ± 0.01 µM
[4]
  IC50: 7.09 ± 0.09 µM
Bax [5]
  release of Bax protein: significantly surge the release
DHFR; MCF7 cells, Cont.MCF7 0.808
  western blotting OD DHFR: 0.346 OD
DHFR; MCF-7 cancer cell line
  DHFR expression (western blot): significantly diminished the DHFR expression
Human DHFR enzyme; DHFR ELISA kit, triplicate
  IC50: < 1 µM and 0.31 µM
Human DHFR enzyme; conc 0.1 uM
  inhibition at 0.1 µM: 44%
Human DHFR enzyme; conc 1 uM
  inhibition at 1 µM: 66%
Human DHFR enzyme; conc 10 uM
  inhibition at 10 µM: 86%
Human DHFR enzyme; conc 100 uM
  inhibition at 100 µM: 94%
[6]
  IC50: 4.65 ± 0.17 µM
